Reference: the OligoGym collection
After the bases stand the sugars from the 5' end (letter, count) and the backbone: PS all phosphorothioate, else s phosphorothioate and o phosphodiester by linkage. Methylation of C is not given here. e = 2'-O-(2-methoxyethyl) (MOE); k = constrained ethyl (cEt); d = 2'-deoxy (DNA); m = 2'-O-methyl

Target: HSD17B13
Conditions: ASO, HepaRG

Row | Sequence | target mRNA inhibition (1 µM) [%] | further results
1 | ATAACTACATGACCTG (sugars k3 d10 k3, PS) | 29 | –
2 | ATAGTAATTGCTATAG (sugars k3 d10 k3, PS) | 36 | –
3 | TTTTACTGGGATACTA (sugars k3 d10 k3, PS) | 27 | –
4 | TGGTAATCTCTTCATC (sugars k3 d10 k3, PS) | 23 | –
5 | AGGTAGCTTTTGTCCA (sugars k3 d1 m1 d8 k3, PS) | 59 | –
6 | GCTAAACCCTGGAGCA (sugars k3 d10 k3, PS) | 5 | –
7 | ATTGATATACGATGGA (sugars k3 d10 k3, PS) | 31 | –
8 | GAACCCAGTATTCACA (sugars k3 d10 k3, PS) | 0 | –
9 | GTTGCACCGTTTTGGG (sugars k3 d1 m1 d8 k3, PS) | 38 | –
10 | CTTATGTAATAGCCAG (sugars kkdddddddddkekek, PS) | 61 | –
11 | AGTAGTGGAGCCAGAC (sugars k3 d10 k3, PS) | 39 | –
12 | GACAGACCAAGTAGCT (sugars k3 d10 k3, PS) | 39 | –
13 | GGTAAGTATTCCATCT (sugars k3 d10 k3, PS) | 12 | –
14 | CATTATAAGCTAACTA (sugars k3 d10 k3, PS) | 39 | –
15 | TCCAATTTAAATCAGG (sugars k3 d10 k3, PS) | 61 | –
16 | ATGTUTATGTAAGCAC (sugars k3 d1 m1 d8 k3, PS) | 45 | –
17 | CTATAGTAATCACAAG (sugars k3 d10 k3, PS) | 35 | –
18 | TGAAGTTAGTATAGTT (sugars k3 d9 k3 e1, PS) | 70 | –
19 | GAATAGTCTTCAGCAA (sugars k3 d10 k3, PS) | 51 | –
20 | AAAGTTTGTTAGAGTG (sugars k3 d10 k3, PS) | 75 | target mRNA inhibition (0.02 µM): 0%; target mRNA inhibition (0.078 µM): 6%; target mRNA inhibition (0.313 µM): 0%; target mRNA inhibition (1.25 µM): 55%; target mRNA inhibition (5 µM): 78%
21 | ACAGTAAAATTATGCC (sugars k3 d9 k3 e1, PS) | 62 | –
22 | TCATAAGTAGTCTGCC (sugars k3 d10 k3, PS) | 62 | –
23 | CAGTCTTAAACCTTCC (sugars kkdddddddddkekek, PS) | 51 | –
24 | AGCGAATGTTAAAACT (sugars k3 d10 k3, PS) | 16 | –
25 | GTTTCAACTAAACATG (sugars k3 d10 k3, PS) | 65 | –

Row | Sequence | target mRNA inhibition (1 µM) [%] | further results
26 | GTCTAAACATCTCTGG (sugars k3 d9 k3 e1, PS) | 49 | –
27 | TCATTAAGCTTAGTAT (sugars k3 d10 k3, PS) | 31 | –
28 | ATAGGGAGACCATGCT (sugars k3 d10 k3, PS) | 64 | –
29 | GAGACATGAGGTTTTG (sugars k3 d9 k3 e1, PS) | 61 | –
30 | AGAACCAGGACTCTCC (sugars k3 d10 k3, PS) | 67 | –
31 | GGGAAAAAGTGTGTTC (sugars k3 d10 k3, PS) | 20 | –
32 | TCACATATGTGAAGAG (sugars k3 d10 k3, PS) | 27 | –
33 | GTATAGTTATCTTCTC (sugars kkkdddddkdddkkke, PS) | 68 | –
34 | TTGAATAGCAAGCCAA (sugars k3 d9 k3 e1, PS) | 33 | –
35 | TTGAACAGTCTTAAAC (sugars kkdddddddddkekek, PS) | 37 | –
36 | CTGTAGGCTAAACCCT (sugars k3 d10 k3, PS) | 47 | –
37 | CCTAGGATGTTGACCT (sugars k3 d10 k3, PS) | 3 | –
38 | TGAGTAAACGACTCTG (sugars k3 d10 k3, PS) | 23 | –
39 | GATATACGATGGAACA (sugars k3 d10 k3, PS) | 46 | –
40 | CTTACGACAGGTCATC (sugars k3 d10 k3, PS) | 39 | –
41 | TTTTAGGGAGGTAGCT (sugars k3 d10 k3, PS) | 39 | –
42 | CCTATATACATCCAAG (sugars k3 d10 k3, PS) | 53 | –
43 | TCTTAAGATACCCAGG (sugars k3 d10 k3, PS) | 58 | –
44 | AATTTGTGAACCTGCA (sugars k3 d10 k3, PS) | 20 | –
45 | CAATCCCAACCAAACT (sugars k3 d10 k3, PS) | 49 | –
46 | TGTCCACCTTTAAATG (sugars k3 d1 m1 d8 k3, PS) | 17 | –
47 | ATAGAGTCGGTCACCT (sugars k3 d1 m1 d8 k3, PS) | 50 | –
48 | ACCAATATGGGATGAG (sugars k3 d10 k3, PS) | 24 | –
49 | GATTGGAATGCTACTT (sugars k3 d10 k3, PS) | 58 | –
50 | AGTCCAGAATAGAGTT (sugars k3 d10 k3, PS) | 58 | –

Row | Sequence | target mRNA inhibition (1 µM) [%] | further results
51 | GAAGTTAGTATAGTTA (sugars kkdddddddddkekek, PS) | 56 | –
52 | GTGCTTTTGTGATCCA (sugars k3 d10 k3, PS) | 62 | –
53 | TGTCTAAACATCTCTG (sugars k3 d10 k3, PS) | 58 | –
54 | CTACTTGAACAGTCTT (sugars kkdddddddddkekek, PS) | 47 | –
55 | GTTGAGATAAAGCTGC (sugars k3 d10 k3, PS) | 54 | –
56 | AAGGATTTCTAGGATG (sugars k3 d10 k3, PS) | 71 | –
57 | TCAAATGAGGCGGCAC (sugars k3 d10 k3, PS) | 46 | –
58 | CCCAAAAATGTCCTAG (sugars k3 d10 k3, PS) | 18 | –
59 | GTGTTCTTGTTGATAT (sugars k3 d9 k3 e1, PS) | 66 | –
60 | TTCATAAGTAGTCTGC (sugars k3 d10 k3, PS) | 64 | –
61 | TGGTAACGGTGATCAA (sugars k3 d10 k3, PS) | 74 | target mRNA inhibition (0.02 µM): 14%; target mRNA inhibition (0.078 µM): 28%; target mRNA inhibition (0.313 µM): 58%; target mRNA inhibition (1.25 µM): 76%; target mRNA inhibition (5 µM): 88%
62 | AATATGGGATGAGGTA (sugars k3 d9 k3 e1, PS) | 47 | –
63 | ATAGGCAGTAAAGTGC (sugars k3 d10 k3, PS) | 56 | –
64 | CTTCATAGTGGACTTC (sugars kkdddddddddkekek, PS) | 45 | –
65 | GTTTTTAAGAGGCATG (sugars k3 d10 k3, PS) | 63 | –
66 | ACTACTTCAGTTAGCA (sugars k3 d10 k3, PS) | 79 | –
67 | TGGAATGCTACTTGAA (sugars kkdddddddddkekek, PS) | 68 | –
68 | ATCATATGCTAAGTGC (sugars k3 d10 k3, PS) | 73 | target mRNA inhibition (0.02 µM): 0%; target mRNA inhibition (0.078 µM): 11%; target mRNA inhibition (0.313 µM): 48%; target mRNA inhibition (1.25 µM): 71%; target mRNA inhibition (5 µM): 82%
69 | CCATTTACATATGGTG (sugars k3 d10 k3, PS) | 28 | –
70 | AAATGAGGCGGCACTC (sugars k3 d10 k3, PS) | 20 | –
71 | GCTGTAAGAGTCAGTA (sugars k3 d10 k3, PS) | 89 | target mRNA inhibition (0.02 µM): 5%; target mRNA inhibition (0.078 µM): 0%; target mRNA inhibition (0.313 µM): 2%; target mRNA inhibition (1.25 µM): 57%; target mRNA inhibition (5 µM): 82%
72 | GCTGCTAGTGCCAAAC (sugars k3 d1 m1 d8 k3, PS) | 39 | –
73 | ATTAAGCAGAATTGTG (sugars k3 d10 k3, PS) | 8 | –
